The target in assay [1] is T1, AbHMPK (hydroxymethyl pyrimidine kinase / phosphomethylpyrimidine kinase) (Acinetobacter baumannii, UniProt A0A0J9X285). As to the kind of experiment: HPLC and LC-MS/MS of the enzymatic product. The assay is classed as biochemical.
The target in assay [2] is T1, AbHMPK (hydroxymethyl pyrimidine kinase / phosphomethylpyrimidine kinase). Briefly: X-ray crystal structure. The assay is classed as biochemical.

pIC50: −log10 of the molar value.

What is called pIC50 is the negative decadic logarithm of the IC50, by convention in mol/L. A low value points to a large IC50.

T1 sequence (A0A0J9X285 whole entry): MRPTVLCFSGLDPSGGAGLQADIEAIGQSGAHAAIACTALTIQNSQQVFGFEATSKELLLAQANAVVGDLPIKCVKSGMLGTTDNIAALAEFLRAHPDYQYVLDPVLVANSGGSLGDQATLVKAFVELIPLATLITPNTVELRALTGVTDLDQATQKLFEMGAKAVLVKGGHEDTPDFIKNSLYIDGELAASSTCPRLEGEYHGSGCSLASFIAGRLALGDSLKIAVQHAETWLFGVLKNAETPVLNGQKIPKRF

Regarding `Cc1ncc(COP(=O)(O)O)c(N)n1` [HMP-P], the “HPLC and LC-MS/MS of the enzymatic product” value in assay [1] was “the mass spectrometry analysis all confirm that this single product is HMP-P”.
On to `Cc1ncc(COP(=O)(O)O)c(C=O)c1O` [PLP, 4-Formyl-5-hydroxy-6-methylpyridin-3-yl) methyl dihydrogen phosphate], for which, in assay [2], the pIC50 is 3.11.

The values are drawn from article PMC11426312 (Biochemistry, 2024).
